According to PubChem BioAssay AID1418 (Emory University Molecular Libraries Screening Center, 2008):
Activity calls are given as the source filed them. How the calls were made is not given here.

These compounds were tested against Induced myeloid leukemia cell differentiation protein Mcl-1 (Homo sapiens) (UniProt Q07820) (assay: blockers of Bid binding to Mcl-1 – biochemical, TR-FRET, dose response (AID 1418)). Details: Mcl-1/Bid peptide binding, TR-FRET (europium/Dy647), 2 hr.
Chain of Induced myeloid leukemia cell differentiation protein Mcl-1 (Homo sapiens) (Q07820 whole entry, looked up): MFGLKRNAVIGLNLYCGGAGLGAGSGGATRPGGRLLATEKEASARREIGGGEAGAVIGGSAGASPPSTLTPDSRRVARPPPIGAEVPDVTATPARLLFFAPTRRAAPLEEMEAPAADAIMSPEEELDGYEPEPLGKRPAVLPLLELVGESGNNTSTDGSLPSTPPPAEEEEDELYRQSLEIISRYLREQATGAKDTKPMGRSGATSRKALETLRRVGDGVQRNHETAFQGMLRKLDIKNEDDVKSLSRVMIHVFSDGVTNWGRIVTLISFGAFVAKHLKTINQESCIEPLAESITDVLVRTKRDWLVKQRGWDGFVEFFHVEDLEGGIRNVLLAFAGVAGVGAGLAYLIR
With CCC(CC)C(=O)Oc1c(Sc2ccccc2[N+](=O)[O-])c(C)nn1C(C)(C)C the IC50 was > 54 µM (inactive).
In the case of NC(=S)Nc1ccc(F)cc1F, the IC50 is reported as > 54 µM (inactive).
Compound O=C(CSc1cccc[n+]1[O-])Nc1cc2c(cc1Cl)C(=O)c1ccccc1C2=O has an IC50 of 9.39 µM.
Cc1nc(CSc2nc3[nH]ncc3c(=O)n2-c2ccccc2)cs1 was tested, and the IC50 was > 54 µM (inactive).
For O=C(Nc1nnc(-c2ccco2)s1)C1CC1, the IC50 was > 54 µM (inactive).
For COCCN1C(=O)C(=O)/C(=C(/O)c2ccc(S(=O)(=O)N3CCOCC3)cc2)C1c1cccc(Cl)c1 (stereo unspecified), the IC50 was > 54 µM (inactive).
COc1ccc(N=Nc2ccc(O)c3ncccc23)cc1 was tested, and the IC50 was 15.1 µM.
With O=C(c1cnn2c(C(F)(F)F)cc(-c3cccs3)nc12)N1CCOCC1 the IC50 was > 54 µM (inactive).
With O=C1C(C=NCc2ccncc2)=C(O)c2ccccc21 the IC50 was > 54 µM (inactive).
In the case of NC(=O)NC(CC(=O)NCCc1ccc(S(N)(=O)=O)cc1)c1ccc(Cl)cc1 (stereo unspecified), the IC50 is reported as > 54 µM (inactive).
For O=C(CN1C(=O)c2ccccc2C1=O)N1CCCCC1, the IC50 was > 54 µM (inactive).
With N#Cc1nc(COc2ccc(F)cc2)oc1N1CCN(Cc2ccccc2)CC1 the IC50 was > 54 µM (inactive).
Cc1nc(NC(=O)c2ccccc2)sc1-c1csc(Nc2ccc(C(=O)O)cc2)n1 was tested, and the IC50 was 9.88 µM.
In the case of CC1(C)Cc2cccc(OCC(=O)OCC(=O)Nc3cccc(S(N)(=O)=O)c3)c2O1, the IC50 is reported as > 54 µM (inactive).
Work on NC(=S)n1[nH]c(-c2ccc([N+](=O)[O-])cc2)c(N=Nc2cccc([N+](=O)[O-])c2)c1=O yielded an IC50 of 2.37 µM.
With COC(=O)CSc1nc(C)c(C)c(C)c1C(N)=O the IC50 was > 54 µM (inactive).
O=[N+]([O-])c1cc(Br)c(O)c(/C=N/Nc2nc3ccccc3s2)c1 was tested, and the IC50 was 1.16 µM.
With O=S(=O)(c1ccccc1F)N1CCN(Cc2nc3ccccc3[nH]2)CC1 the IC50 was > 54 µM (inactive).
In the case of O=C(c1cccc(Cl)c1)N1CCN(Cc2ccccc2F)CC1, the IC50 is reported as > 54 µM (inactive).
For COc1ccc(-c2nc3ccccc3c(=O)n2CCOc2cccc(C)c2C)cc1, the IC50 was > 54 µM (inactive).
With COc1ccccc1NS(=O)(=O)c1cccc(NC(=O)C2CC(=O)N(Cc3ccccc3)C2)c1 (stereo unspecified) the IC50 was > 54 µM (inactive).
COc1cc(NC(=O)COc2ccccc2)c(OC)cc1NC(C)=O was tested, and the IC50 was > 54 µM (inactive).
With COc1ccc(C(=O)Nc2cccc(-c3cc4ccccc4oc3=O)c2)cc1[N+](=O)[O-] the IC50 was 1.24 µM.
Fc1ccccc1NC(=S)N1CCN(Cc2ccc3c(c2)OCO3)CC1 was tested, and the IC50 was > 54 µM (inactive).
In the case of Cc1c(C(=O)OCc2ccccc2)[nH]c2c1C(=O)CC(c1ccco1)C2 (stereo unspecified), the IC50 is reported as > 54 µM (inactive).
With Cc1ccc(S(=O)(=O)N2CN3CCN(C3)C2)cc1 the IC50 was > 54 µM (inactive).
NC(N)=NS(=O)(=O)c1ccc(NC(=S)NC(=O)c2sc3ccccc3c2Cl)cc1 was tested, and the IC50 was 1.04 µM.
CN(C)S(=O)(=O)c1cccc(NC(=O)COC(=O)c2cc3ccccc3oc2=O)c1 was tested, and the IC50 was > 54 µM (inactive).
O=c1c(O)cccc2cc(O)c(O)c(O)c12 gave an IC50 of 0.92 µM.
COCCCNCC(=O)Nc1sc(C)c(C)c1C(=O)OC was tested, and the IC50 was > 54 µM (inactive).
CCOC(=O)c1c(-c2ccco2)csc1NC(=O)CSc1nnc(N)s1 was tested, and the IC50 was > 54 µM (inactive).
Cc1ccc(N=Nc2c(N)[nH]n3c(=O)cc(-c4ccccc4)nc23)cc1 was tested, and the IC50 was “inactive”.
O=C(CN1C(=O)NC2(CCc3ccccc3C2)C1=O)Nc1ccc(F)cc1 (stereo unspecified) was tested, and the IC50 was > 54 µM (inactive).
Work on CCSC1=NC2(CCCCC2)Nc2sc3c(c21)CCCC3 yielded an IC50 of 0.44 µM.
For COc1cc2nc(N3CCN(C(=O)c4ccco4)CC3)nc(N)c2cc1OC, the IC50 was > 54 µM (inactive).
In the case of CC1(c2cccc3ccccc23)NC(=O)N(CC(=O)NC2CCS(=O)(=O)C2)C1=O (stereo unspecified), the IC50 is reported as > 54 µM (inactive).
Work on O=[N+]([O-])c1cc(Cl)cc(/C=N\Nc2ccccn2)c1O yielded an IC50 of 9.24 µM.
In the case of O=C(NC1CCCC1)c1csc2c1CCCC2, the IC50 is reported as > 54 µM (inactive).
In the case of Oc1c(Cl)cc(Cl)cc1Sc1cc(Cl)cc(Cl)c1O, the IC50 is reported as 1.67 µM.
For Cc1ccc(S(=O)(=O)N(C)CC(O)Cn2c3ccccc3c3ccccc32)cc1 (stereo unspecified), the IC50 was > 54 µM (inactive).
With Brc1ccccc1 the IC50 was > 54 µM (inactive).
O=C(NCC1CCCO1)c1ccc(CSCc2cccc(F)c2)o1 (stereo unspecified) was tested, and the IC50 was > 54 µM (inactive).
For N#C/C(=C1/CCCCCN1)c1nc2ccccc2s1, the IC50 was > 54 µM (inactive).
CC(C)N1C(=O)/C(=C/c2nc3ccccc3c(=O)n2-c2ccccc2)c2ccccc21 was tested, and the IC50 was 0.99 µM.
For CCOC(=O)C1CCN(CC(=O)Nc2c(C(=O)OC)[nH]c3cccc(Cl)c23)CC1, the IC50 was > 54 µM (inactive).
With COc1ccc(C)cc1S(=O)(=O)N(C)CC(=O)NCc1ccco1 the IC50 was > 54 µM (inactive).
With CCC1Oc2ccc(C)cc2N(CC(=O)N(Cc2cccnc2)Cc2ccc(C)o2)C1=O (stereo unspecified) the IC50 was > 54 µM (inactive).
O=[N+]([O-])c1cc(Cl)cc(/C=N/NC(=S)Nc2cc(S(=O)(=O)N3CCOCC3)ccc2Cl)c1O showed an IC50 of 7.3 µM.
Compound N=C1/C(=C/c2ccc(-c3cccc(C(=O)O)c3)o2)C(=O)N=C2SC=C(c3ccccc3)N12 has an IC50 of 1.02 µM.
Work on O=C1OC(c2cccs2)=N/C1=C/c1ccc(-c2cccc(C(=O)O)c2)o1 yielded an IC50 of 2.68 µM.
For c1ccc(CSc2nnc(-c3ccco3)c(-c3ccco3)n2)cc1, the IC50 was 10.2 µM.
For CCOc1ccccc1NC(=O)CN(C)S(=O)(=O)c1cccc2nsnc12, the IC50 was > 54 µM (inactive).
O=C(NCc1nc2ncc(Br)cc2[nH]1)c1ccccc1 was tested, and the IC50 was > 54 µM (inactive).
For C/C(C/C(C)=C1/SC(=S)NC1=O)=C1\SC(=S)NC1=O, the IC50 was 1.25 µM.
For O=c1c2ccccc2nc2n1CCC2, the IC50 was 0.52 µM.
With CC(CCC(=O)Nc1nncs1)C(=O)O (stereo unspecified) the IC50 was > 54 µM (inactive).
With Cc1ccccc1NC(=O)c1c(C)[nH]c(=S)c(C#N)c1-c1ccc(Cl)cc1 the IC50 was > 54 µM (inactive).
COc1ccc2[nH]c(=O)c(CN(C(=O)C3CCCO3)c3ccc(C)c(C)c3)cc2c1 (stereo unspecified) was tested, and the IC50 was > 54 µM (inactive).
With O=C(/C=C/c1cccs1)Nc1scc(-c2ccccc2)c1C(=O)O the IC50 was 0.54 µM.
C=CCn1c(SCC(=O)c2[nH]c(C)c(C(=O)OCC)c2C)nc2scc(-c3ccc(OC)c(OC)c3)c2c1=O was tested, and the IC50 was 0.84 µM.
COc1ccc(C2(C)NC(=O)N(CC(=O)NCCC3=CCCCC3)C2=O)cc1OC (stereo unspecified) was tested, and the IC50 was > 54 µM (inactive).
O=C(N=Nc1c(O)[nH]c2ccc(Br)cc12)c1cc(-c2cccs2)nc2ccccc12 was tested, and the IC50 was 0.54 µM.
For COc1ccc(Cc2nnc(NC(=O)Cc3cccs3)s2)cc1OC, the IC50 was > 54 µM (inactive).
Work on Cc1cc(N/N=C/c2ccc(O)c(C)c2O)nc(-c2ccccc2O)n1 yielded an IC50 of 9.06 µM.
For O=C(CN(C(=O)CNC(=O)c1ccco1)c1ccc2c(c1)OCO2)NC1CCCCC1, the IC50 was > 54 µM (inactive).
COc1cccc2c1c(NC(=O)Nc1ccc(F)cc1F)nn2C was tested, and the IC50 was > 54 µM (inactive).
In the case of COc1ccc(-c2ccc(C#N)c(SCC(=O)Nc3sc4c(c3C#N)CCC4)n2)cc1OC, the IC50 is reported as 0.67 µM.
In the case of COc1cccc(OC)c1C(=O)Nc1ccccc1C(=O)N1CCOCC1, the IC50 is reported as > 54 µM (inactive).
With O=C(Nc1sc2c(c1C(=O)O)CCC2)c1ccccc1 the IC50 was > 54 µM (inactive).
For CC(C)NC(=O)C1CCCN(S(=O)(=O)c2ccc(-n3cnnn3)cc2)C1 (stereo unspecified), the IC50 was > 54 µM (inactive).
For O=S(=O)(Nc1cccc(-c2cn3ccsc3n2)c1)c1ccc(F)cc1, the IC50 was > 54 µM (inactive).
For COc1ccc(N/C(=C(/C(Cl)=C(Cl)Cl)[N+](=O)[O-])n2nnc3ccccc32)cc1OC, the IC50 was > 54 µM (inactive).
In the case of CC(=O)c1cccc(NC(=O)C2CCN(C(=O)c3ccc([N+](=O)[O-])cc3)CC2)c1, the IC50 is reported as > 54 µM (inactive).
O=C1Nc2ccc(Br)cc2/C1=C/C(=O)c1ccc2c(c1)OCO2 showed an IC50 of 1.93 µM.
With Cc1nc(C)n(CC(O)COc2ccc3c(c2)CCC3)n1 (stereo unspecified) the IC50 was > 54 µM (inactive).
In the case of COCCn1cc(C(=O)N2CCC(C)CC2)c2c3ccccc3n(C)c2c1=O, the IC50 is reported as “inactive”.
COc1cccc(-n2c(SCc3ccccn3)nc3c(c2=O)SCC3)c1 was tested, and the IC50 was > 54 µM (inactive).
In the case of CC12CCC(C(=O)Nc3ccccc3-n3cccc3)(CC1=O)C2(C)C (stereo unspecified), the IC50 is reported as > 54 µM (inactive).
For COc1ccc(NC(=O)c2cc(C3CC3)on2)c(OC)c1, the IC50 was > 54 µM (inactive).
For COc1cc(S(=O)(=O)Nc2cccc(C)c2)ccc1NC(=O)c1ccncc1, the IC50 was > 54 µM (inactive).
With CC1=NOC(=O)/C1=C/c1ccc(-c2ccc(Cl)cc2)o1 the IC50 was 8.87 µM.
In the case of COc1cccc(OC)c1C(=O)N1CCN(c2ccccn2)CC1, the IC50 is reported as > 54 µM (inactive).
For O=[N+]([O-])c1cccc(S(=O)(=O)Nc2nc3ccccc3nc2Nc2cccc(S(=O)(=O)N3CCCCC3)c2)c1, the IC50 was “inactive”.
For O=C(Cn1nc(C(=O)O)c2ccccc2c1=O)Nc1ccc2c(c1)C(=O)c1ccccc1C2=O, the IC50 was 2.93 µM.
Work on O=C1N=c2ccccc2=C1c1c(O)n(-c2cccc(F)c2)[nH]c1=O yielded an IC50 of 1.56 µM.
In the case of Cc1nc(N)sc1-c1csc(Nc2ncccn2)n1, the IC50 is reported as 3.3 µM.
Compound Nc1ccc(N)c(C(=O)O)c1 has an IC50 of 28.7 µM.
CC1=C(SCCC#N)S/C(=C2\SC(C)=C(SCCC#N)S2)S1 was tested, and the IC50 was 2.84 µM.
In the case of Cc1ccc(S(=O)(=O)N(CC(=O)N/N=C/c2cccc(Cl)c2)c2cccc3cccnc23)cc1, the IC50 is reported as > 54 µM (inactive).
In the case of O=c1[nH]c(=O)n(CCc2ccccc2)c(O)c1C=NCc1ccc2c(c1)OCO2, the IC50 is reported as “inactive”.
With O=[N+]([O-])C(=c1ccc2c(c1)N1C3=C(CCCC3)CC3CCCCC31N=2)[N+](=O)[O-] (stereo unspecified) the IC50 was 0.73 µM.
O=C(Cc1c(F)cccc1Cl)Nc1ccon1 was tested, and the IC50 was > 54 µM (inactive).
For O=C(COc1ccc(S(=O)(=O)N2CCCC2)cc1Cl)NC1CC1, the IC50 was > 54 µM (inactive).
CSC(=NCc1cccnc1)NS(=O)(=O)c1cccs1 was tested, and the IC50 was > 54 µM (inactive).
For O=C(CNc1ccc2ccccc2c1)N/N=C/c1ccc([N+](=O)[O-])o1, the IC50 was > 54 µM (inactive).
For Cc1cc(-c2nc3c4c5c(sc4[nH]c(=O)n3n2)CCC5)c(C)o1, the IC50 was > 54 µM (inactive).
With Nc1ccccc1Nc1ccccc1 the IC50 was > 54 µM (inactive).
Compound O=C(O)CCN1C(=O)/C(=C/c2cn(-c3ccccc3)nc2-c2cccs2)SC1=S has an IC50 of 6.79 µM.
COC(=O)c1cc(NC(=S)NCc2ccc(Cl)cc2)cc(C(=O)OC)c1 was tested, and the IC50 was > 54 µM (inactive).
O=c1[nH]c(O)c(/C=C2/C=CC(c3cc(Cl)ccc3Cl)=N2)c(=O)[nH]1 was tested, and the IC50 was 1.07 µM.
In the case of CCCCN(Cc1cc2ccccc2[nH]c1=O)S(C)(=O)=O, the IC50 is reported as > 54 µM (inactive).
